Molecular target: T1, human metabotropic glutamate receptor mGluR5 (Homo sapiens, UniProt P41594)
T1 construct: expressed in transfected cells; host or cells: CHO-K1 (h5CHO), IPTG-inducible
Test: Cytosolic calcium studies with stably transfected cells (h5CHO), functional assay of mGluR5 receptors
Assay type: cell-based
Details: h5CHO cells; for IC50: Table A2, negative modulation, compounds added 5 minutes before L-quisqualic acid (~80% of the maximal signal), read-out: hIC50
Procedure: Chinese hamster ovary cells (CHO-K1 cells), stably transfected for inducible expression of a human metabotropic glutamate receptor mGluR5 to form a cell line called h5CHO, are seeded into black clear bottom 96 well plates at a density of 35.000 cells per well. The standard growth medium used (Dulbecco's modified Eagle Medium, DMEM plus L-proline) contains the appropriate inducer isopropyl-β-D-thiogalactopyranosid (IPTG) to achieve optimal receptor expression. One day after seeding the growth medium is exchanged for reconstituted Ca-Kit (Molecular Devices, USA) and incubated for one hour. Ca-Kit is reconstituted in an assay buffer containing 20 mM HEPES pH 7.4, glutamic-pyruvate transaminase, pyridoxal phosphate and sodium pyruvate in Hank's balanced salt solution (HBBS). Agonistic compounds to the receptor elicit increases in cytosolic calcium which can be measured as increases in fluorescence signals by use of a fluorescence imaging plate reader (Molecular Devices). To analyze their potency to negatively modulate the Ca-response test compounds, dissolved in a final DMSO concentration of 0.5%, are added on-line 5 minutes before the agonist to the receptor (L-quisqualic acid at a concentration giving ~80% of the maximal signal). EC50 values for positive allosteric modulators were determined by stimulating the cells which have been preincubated the modulators by an EC20 concentration of L-glutamate.
The fluorescence signal increase after addition of agonist reflects the increase of cytosolic calcium. Inconsistencies in the amount of cells per well are normalised by using the spatial uniformity correction of the FLIPR operating software Screenworks. The mean of replicated temporal data (n=3-5) is calculated and used for graphical representation. For the evaluation of the pharmacology, the calcium changes in response to different concentrations of agonist or antagonist are determined using a maximum minus minimum (MaxMin) calculation.
All responses (RFU-values) are determined as percentage of control (= maximum response). EC50 and IC50 are calculated according the logistic equation using XLFit (IDBS, UK) or Prism 4.0 (GraphPad Software, USA). The compounds of the present invention have a potency (EC50 or IC50) within a range of about 0.5 nM to about 100 µM. The left shifts for positive or slient allosteric modulators (PAMs or SAMs, respectively) are determined by comparison of EC50 values from agonist dose response curves run in the presence of 10 µM modulator or vehicle (Vanejevs et al., J. Med. Chem., 2008, 51, 634-647).

T1 sequence (P41594 21-1212): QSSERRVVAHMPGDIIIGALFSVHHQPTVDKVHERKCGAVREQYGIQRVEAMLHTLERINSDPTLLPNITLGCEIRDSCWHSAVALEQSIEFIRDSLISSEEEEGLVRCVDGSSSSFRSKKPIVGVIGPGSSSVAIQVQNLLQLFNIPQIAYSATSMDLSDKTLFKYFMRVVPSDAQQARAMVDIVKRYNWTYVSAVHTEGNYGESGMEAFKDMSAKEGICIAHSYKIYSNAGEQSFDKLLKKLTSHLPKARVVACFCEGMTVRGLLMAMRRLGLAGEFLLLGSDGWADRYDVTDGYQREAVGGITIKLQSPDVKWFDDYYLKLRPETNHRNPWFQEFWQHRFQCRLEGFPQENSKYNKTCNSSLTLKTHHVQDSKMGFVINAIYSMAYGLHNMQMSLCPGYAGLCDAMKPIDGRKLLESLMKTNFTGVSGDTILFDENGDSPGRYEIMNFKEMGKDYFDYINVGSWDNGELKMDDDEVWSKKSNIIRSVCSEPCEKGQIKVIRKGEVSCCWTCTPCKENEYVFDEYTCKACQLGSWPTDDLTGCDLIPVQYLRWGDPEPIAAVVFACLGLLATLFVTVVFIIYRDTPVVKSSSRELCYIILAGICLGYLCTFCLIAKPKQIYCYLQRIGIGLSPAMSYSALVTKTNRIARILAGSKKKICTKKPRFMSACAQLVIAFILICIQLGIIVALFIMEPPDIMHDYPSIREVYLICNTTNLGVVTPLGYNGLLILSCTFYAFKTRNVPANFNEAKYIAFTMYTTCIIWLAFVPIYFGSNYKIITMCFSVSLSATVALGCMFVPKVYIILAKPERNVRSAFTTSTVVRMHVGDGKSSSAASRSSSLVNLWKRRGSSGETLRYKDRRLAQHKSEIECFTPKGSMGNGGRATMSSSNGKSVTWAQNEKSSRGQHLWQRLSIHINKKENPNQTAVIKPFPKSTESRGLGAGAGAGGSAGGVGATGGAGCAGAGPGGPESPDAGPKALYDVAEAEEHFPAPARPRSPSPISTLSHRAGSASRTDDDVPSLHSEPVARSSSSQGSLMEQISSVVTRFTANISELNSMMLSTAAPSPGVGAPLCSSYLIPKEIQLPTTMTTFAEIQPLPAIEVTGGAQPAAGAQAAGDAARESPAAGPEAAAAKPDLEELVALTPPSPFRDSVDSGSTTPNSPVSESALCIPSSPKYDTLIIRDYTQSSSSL

For `COC1CCCc2ncc(C#Cc3cccc(N)n3)cc21` (racemic) [Example 3, (rac)-6-((5-Methoxy-5,6,7,8-tetrahydroquinolin-3-yl)ethynyl)pyridin-2-amine], the IC50 was 4230 nM.

Work on `COC1CC(C)(C)Cc2ncc(C#Cc3ccccc3)cc21` (racemic) [Example 4, (rac)-5-Methoxy-7,7-dimethyl-3-(phenylethynyl)-5,6,7,8-tetrahydroquinoline] yielded an IC50 of 341 nM.

Work on `COC1CC(C)(C)Cc2ncc(C#Cc3cn4ccccc4n3)cc21` (racemic) [Example 6, (rac)-3-(Imidazo[1,2-a]pyridin-2-ylethynyl)-5-methoxy-7,7-dimethyl-5,6,7,8-tetrahydroquinoline] yielded an IC50 of 695 nM.

`COC1CC(C)(C)Oc2ncc(C#Cc3cccc(N)n3)cc21` (racemic) [Example 7, (rac)-6-((4-Methoxy-2,2-dimethyl-3,4-dihydro-2H-pyrano[2,3-b]pyridin-6-yl)ethynyl)pyridin-2-amine] gave an IC50 of 203 nM.

For `COC1CC(C)(C)Oc2ncc(C#Cc3cn4ccccc4n3)cc21` (racemic) [Example 8, (rac)-6-(Imidazo[1,2-a]pyridin-2-ylethynyl)-4-methoxy-2,2-dimethyl-3,4-dihydro-2H-pyrano[2,3-b]pyridine], the IC50 was 225 nM.

With `O=C1NCC2(CCCc3ncc(C#Cc4ccccc4)cc32)O1` (racemic) [Example 10, (rac)-3'-(Phenylethynyl)-7',8'-dihydro-6'H-spiro[oxazolidine-5,5'-quinolin]-2-one] the h left shift (Table A1, left shift of agonist EC50, dose response curves in the presence of 10 µM modulator or vehicle) was 1.8-fold.

In the case of `CN1CCC2Cc3ncc(C#Cc4ccccc4)cc3CN2C1=O` (racemic) [Example 57, (rac)-8-Methyl-3-(phenylethynyl)-9,10,10a,11-tetrahydro-5H-pyrimido[1,6-g][1,6]naphthyridin-7(8H)-one], the IC50 is reported as 190 nM.

`COC(=O)N1Cc2cc(C#Cc3cccc(F)c3)cnc2[C@H]2CCC[C@H]21` (racemic) [Example 61, (rac)-cis-Methyl 3-((3-fluorophenyl)ethynyl)-7,8,9,9a-tetrahydro-5H-cyclopenta[h][1,6]naphthyridine-6(6aH)-carboxylate] was tested, and the IC50 was 132 nM.

`COC(=O)N1Cc2cc(C#Cc3ccccc3)cnc2[C@H]2CCCC[C@H]21` (racemic) [Example 62, (rac)-cis-Methyl 3-(phenylethynyl)-6a,7,8,9,10,10a-hexahydrobenzo[h][1,6]naphthyridine-6(5H)-carboxylate] gave an IC50 of 1400 nM.

With `COC(=O)N1Cc2cc(C#Cc3cccc(F)c3)cnc2[C@H]2CCCC[C@H]21` (racemic) [Example 63, (rac)-cis-Methyl 3-((3-fluorophenyl)ethynyl)-6a,7,8,9,10,10a-hexahydrobenzo[h][1,6]naphthyridine-6(5H)-carboxylate] the IC50 was 1320 nM.

Compound `CC(C)(C)C(=O)N1CCc2ncc(C#Cc3cccc(N)n3)cc2C1` [Example 35, 1-(3-((6-Aminopyridin-2-yl)ethynyl)-7,8-dihydro-1,6-naphthyridin-6(5H)-yl)-2,2-dimethylpropan-1-one] has an IC50 of 617 nM.

In the case of `CN(C)C(=O)N1CCc2ncc(C#Cc3ccccc3)cc2C1` [Example 44, N,N-Dimethyl-3-(phenylethynyl)-7,8-dihydro-1,6-naphthyridine-6(5H)-carboxamide], the IC50 is reported as 247 nM.

In the case of `CN(C)C(=O)N1CCc2ncc(C#Cc3cccc(N)n3)cc2C1` [Example 47, 3-((6-Aminopyridin-2-yl)ethynyl)-N,N-dimethyl-7,8-dihydro-1,6-naphthyridine-6(5H)-carboxamide], the IC50 is reported as 261 nM.

With `CCN(CC)C(=O)N1CCc2ncc(C#Cc3cccc(C#N)c3)cc2C1` [Example 48, 3-((3-Cyanophenyl)ethynyl)-N,N-diethyl-7,8-dihydro-1,6-naphthyridine-6(5H)-carboxamide] the IC50 was 194 nM.

`Cc1cccc(C#Cc2cnc3c(c2)CS(=O)(=O)CC3)c1` [Example 68, 3-(m-Tolylethynyl)-7,8-dihydro-5H-thiopyrano[4,3-b]pyridine 6,6-dioxide] was tested, and the IC50 was 75.5 nM.
